# Legend:
# Assay type in all cases: functional
# [1] = system: Pseudomonas aeruginosa; assay: Antibacterial activity against Pseudomonas aeruginosa CMCC 10104 after 24 hrs by agar dilution method; details: CMCC 10104, 24 h
# [2] = system: Escherichia coli; assay: Antibacterial activity against Escherichia coli CMCC 44103 after 24 hrs by agar dilution method; details: CMCC 44103, 24 h
# [3] = system: Staphylococcus aureus; assay: Antibacterial activity against Staphylococcus aureus CMCC 26003 after 24 hrs by agar dilution method; details: CMCC 26003, 24 h
MIC [1] [µg/mL],MIC [2] [µg/mL],MIC [3] [µg/mL],Structure (SMILES)
> 32,> 32,> 32,Cc1cccc(C)c1OC[C@H]1CC[C@H](C(=O)Nc2c(F)cc3c(=O)c(C(=O)O)cn4c3c2OC[C@@H]4C)CC1
> 32,> 32,> 32,CCn1cc(C(=O)O)c(=O)c2cc(F)c(NC(=O)[C@H]3CC[C@@H](COc4ccccc4)CC3)c(F)c21
> 32,> 32,> 32,CCn1cc(C(=O)O)c(=O)c2cc(F)c(NC(=O)[C@H]3CC[C@H](COc4cccc(F)c4F)CC3)c(F)c21
> 32,> 32,> 32,C[C@H]1COc2c(NC(=O)[C@H]3CC[C@@H](COc4ccc([N+](=O)[O-])cc4)CC3)c(F)cc3c(=O)c(C(=O)O)cn1c23
> 32,> 32,> 32,COc1c(NC(=O)[C@H]2CC[C@@H](COc3c(C)cccc3C)CC2)c(F)cc2c(=O)c(C(=O)O)cn(C3CC3)c12
2,0.25,1,COc1c(NC(=O)[C@H]2CC[C@@H](COc3ccc([N+](=O)[O-])cc3)CC2)c(F)cc2c(=O)c(C(=O)O)cn(C3CC3)c12
> 32,> 32,> 32,COc1c(NC(=O)[C@H]2CC[C@H](COc3c(C)cccc3C)CC2)c(F)cc2c(=O)c(C(=O)O)cn(C3CC3)c12
> 32,> 32,> 32,COc1c(NC(=O)[C@H]2CC[C@H](COc3ccc([N+](=O)[O-])cc3)CC2)c(F)cc2c(=O)c(C(=O)O)cn(C3CC3)c12
> 32,> 32,> 32,CCn1cc(C(=O)O)c(=O)c2cc(F)c(NC(=O)[C@H]3CC[C@H](COc4ccccc4)CC3)c(F)c21
> 32,> 32,> 32,CCn1cc(C(=O)O)c(=O)c2cc(F)c(NC(=O)[C@H]3CC[C@H](COc4c(C)cccc4C)CC3)c(F)c21
> 32,> 32,> 32,CCn1cc(C(=O)O)c(=O)c2cc(F)c(NC(=O)[C@H]3CC[C@H](COc4ccc([N+](=O)[O-])cc4)CC3)c(F)c21
> 32,> 32,> 32,COc1c(NC(=O)[C@H]2CC[C@@H](COc3cccc(F)c3F)CC2)c(F)cc2c(=O)c(C(=O)O)cn(C3CC3)c12
> 32,> 32,4,CCn1cc(C(=O)O)c(=O)c2cc(F)c(NC(=O)[C@H]3CC[C@@H](COc4ccc([N+](=O)[O-])cc4)CC3)c(F)c21
8,2,4,CCn1cc(C(=O)O)c(=O)c2cc(F)c(N3CCNC(C)C3)c(F)c21 (stereo not given) [LOMEFLOXACIN]
> 32,> 32,> 32,CCn1cc(C(=O)O)c(=O)c2cc(F)c(NC(=O)[C@H]3CC[C@@H](COc4c(C)cccc4C)CC3)c(F)c21
1,> 32,2,C[C@H]1COc2c(NC(=O)[C@H]3CC[C@@H](COc4cccc(F)c4F)CC3)c(F)cc3c(=O)c(C(=O)O)cn1c23
> 32,> 32,> 32,COc1c(NC(=O)[C@H]2CC[C@H](COc3ccccc3)CC2)c(F)cc2c(=O)c(C(=O)O)cn(C3CC3)c12
> 32,> 32,32,C[C@H]1COc2c(NC(=O)[C@H]3CC[C@H](COc4cccc(F)c4F)CC3)c(F)cc3c(=O)c(C(=O)O)cn1c23
> 32,16,> 32,C[C@H]1COc2c(NC(=O)[C@H]3CC[C@H](COc4ccccc4)CC3)c(F)cc3c(=O)c(C(=O)O)cn1c23
> 32,> 32,> 32,Cc1cccc(C)c1OC[C@H]1CC[C@@H](C(=O)Nc2c(F)cc3c(=O)c(C(=O)O)cn4c3c2OC[C@@H]4C)CC1
> 32,> 32,4,COc1c(NC(=O)[C@H]2CC[C@@H](COc3ccccc3)CC2)c(F)cc2c(=O)c(C(=O)O)cn(C3CC3)c12
> 32,8,> 32,C[C@H]1COc2c(NC(=O)[C@H]3CC[C@@H](COc4ccccc4)CC3)c(F)cc3c(=O)c(C(=O)O)cn1c23
> 32,> 32,> 32,COc1c(NC(=O)[C@H]2CC[C@H](COc3cccc(F)c3F)CC2)c(F)cc2c(=O)c(C(=O)O)cn(C3CC3)c12
> 32,> 32,> 32,C[C@H]1COc2c(NC(=O)[C@H]3CC[C@H](COc4ccc([N+](=O)[O-])cc4)CC3)c(F)cc3c(=O)c(C(=O)O)cn1c23
> 32,> 32,> 32,CCn1cc(C(=O)O)c(=O)c2cc(F)c(NC(=O)[C@H]3CC[C@@H](COc4cccc(F)c4F)CC3)c(F)c21
